{"source": "patent US5834259A", "about": "“Process and composition for preparing D-aspartic acid” (Monsanto Company, priority 1996, dated 1998)", "type_in_all_cases": "biochemical, E. coli K12", "key": {"[1]": {"molecular_target": "T1, L-aspartate-α-decarboxylase (Escherichia coli, UniProt P0A790)", "T1 construct": "expressed in transfected cells; host or cells: E. coli W3110 transformed with pIF309 = strain NS3291 (ATCC 98675), whole cells", "T1 sequence (P0A790 25-126)": "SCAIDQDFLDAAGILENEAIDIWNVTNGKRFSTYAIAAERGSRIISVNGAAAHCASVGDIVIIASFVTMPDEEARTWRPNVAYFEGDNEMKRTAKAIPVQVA", "T1 sequence (P0A790 1-24)": "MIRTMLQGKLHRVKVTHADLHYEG", "test": "Re-use of cells on fresh 0.5M D/L-aspartate (Example 5)", "details": "re-used cells, 37° C.", "method": "Cells that had already been used in Example 3 were put in fresh substrate to determine if they were still active.\nFresh D/L-aspartate substrate was prepared as previously described in Example 3. The cells from Example 3 were resuspended in deionized H2 O and made up to 100 ml. The pH of the substrate (900 ml, 0.5M D/L-Asp) was adjusted to 7.0 with NaOH. After placing in the 2 L fermentor, the cells (100 ml) were added. There was no pH control and deionized H2 O was used for substrate. Samples were removed over time, centrifuged and the supernatant fluid diluted appropriately for both D- and L-aspartic acid determination. Temperature was set at 37° C."}, "[2]": {"molecular_target": "T1, L-aspartate-α-decarboxylase", "test": "Bioconversion of 0.5M D/L-aspartate with NS3291 cells (Example 3)", "method": "66.5 g (0.5M) D/L-aspartate (Sigma, A-9006) was weighed into a 2 L beaker and the pH adjusted to 7.0 with 10N NaOH. The volume was brought to 963 ml with deionized H2 O. 137 ml of cells (NS 3291, described above) were added at a packed cell volume (\"PCV\") of 7.31 g/10 ml cells resulting in a final volume of 1.1 L. Samples (approximately 1 ml each) were removed over time, centrifuged and the supernatant fluid was analyzed by HPLC for D- and L-aspartic acid content.\nIn all of the Examples herein, D- and L-aspartic acid isomers were quantified by HPLC using the following precolumn derivatization method. Aspartic acid was converted into diastereomers using ortho-phthalaldehyde and N-acetyl-L-cysteine. Separation of the diastereomers was achieved on a Supelcosil™ LC-18DB, 3μ, 150×4.6 mm column using a mobile phase of A: 20% methanol/80% triethylamine phosphate and B: methanol, and a step gradient as follows: […]\nRetention times were 4.19 minutes and 4.54 minutes for D-aspartic acid and L-aspartic acid, respectively.\nSamples from bioconversions were centrifuged to remove cells in a microcentrifuge and the supernatant fluid diluted appropriately such that the value determined from the HPLC fell within the linear region of the standard curve. These dilutions were usually between 1:100 and 1:200, made with deionized water."}, "[3]": {"molecular_target": "T1, L-aspartate-α-decarboxylase", "test": "Temperature study, 45° C. (Example 9)", "details": "for concentration in supernatant fluid / percent remaining: 1.0M, 100 g/l cells", "method": "(§1) 133.1 g (1 mol) of D/L-aspartic acid was dissolved in deionized H2 O and the pH was adjusted to 7.0 with 10N NaOH, approximately 100 ml. Cells, freshly thawed from -80° C., were added to achieve a final concentration of 100 g/l. Three 2 L fermentors were each charged with 963 ml of substrate solution and 137 ml of cells and then heated to 37° C. and 45° C. while mixing at 300 rpm or heated to 50° C. while mixing at 450 rpm. Samples, approximately 1 ml, were removed over time and pH adjusted to 7.0 with either NaOH or HCl. After centrifugation to remove cells, the supernatant fluid was analyzed for both D- and L-aspartic acid."}, "[4]": {"molecular_target": "T1, L-aspartate-α-decarboxylase", "test": "Temperature study, 37° C. (Example 9)", "details": "for concentration in supernatant fluid / percent remaining: 1.0M, 100 g/l cells", "method": "as §1"}}}
{"smiles": "N[C@H](CC(=O)O)C(=O)O", "note": "[D-Asp, D-aspartic acid]", "values": [{"measurement": "concentration in supernatant fluid", "setting": "[1]; 0.0000 hr", "result": 30.850, "unit": "mg/mL"}, {"measurement": "concentration in supernatant fluid", "setting": "[1]; 6.2500 hr", "result": 30.820, "unit": "mg/mL"}, {"measurement": "percent remaining", "setting": "[1]; 6.2500 hr", "result": 99.903, "unit": "%"}, {"measurement": "concentration in supernatant fluid", "setting": "[1]; 15.250 hr", "result": 29.870, "unit": "mg/mL"}, {"measurement": "percent remaining", "setting": "[1]; 15.250 hr", "result": 96.823, "unit": "%"}, {"measurement": "concentration in supernatant fluid", "setting": "[1]; 25.750 hr", "result": 28.250, "unit": "mg/mL"}, {"measurement": "percent remaining", "setting": "[1]; 25.750 hr", "result": 91.572, "unit": "%"}, {"measurement": "concentration in supernatant fluid", "setting": "[1]; 28.000 hr", "result": 27.980, "unit": "mg/mL"}, {"measurement": "percent remaining", "setting": "[1]; 28.000 hr", "result": 90.697, "unit": "%"}, {"measurement": "concentration in supernatant fluid", "setting": "[1]; 44.250 hr", "result": 25.000, "unit": "mg/mL"}, {"measurement": "percent remaining", "setting": "[1]; 44.250 hr", "result": 81.037, "unit": "%"}, {"measurement": "concentration in supernatant fluid", "setting": "[1]; 63.500 hr", "result": 21.760, "unit": "mg/mL"}, {"measurement": "percent remaining", "setting": "[1]; 63.500 hr", "result": 70.535, "unit": "%"}, {"measurement": "concentration in supernatant fluid", "setting": "[1]; 65.000 hr", "result": 20.340, "unit": "mg/mL"}, {"measurement": "percent remaining", "setting": "[1]; 65.000 hr", "result": 65.932, "unit": "%"}, {"measurement": "percent remaining", "setting": "[2]; 5.5000 hr", "result": 100.07, "unit": "%"}, {"measurement": "percent remaining", "setting": "[2]; 24.500 hr", "result": 99.829, "unit": "%"}, {"measurement": "percent remaining", "setting": "[2]; 26.500 hr", "result": 94.676, "unit": "%"}, {"measurement": "percent remaining", "setting": "[2]; 32.500 hr", "result": 95.870, "unit": "%"}, {"measurement": "percent remaining", "setting": "[2]; 47.500 hr", "result": 95.768, "unit": "%"}, {"measurement": "percent remaining", "setting": "[2]; 52.000 hr", "result": 96.894, "unit": "%"}, {"measurement": "percent remaining", "setting": "[2]; 68.000 hr", "result": 87.099, "unit": "%"}, {"measurement": "stability of the isomer", "setting": "[3]", "result": "stable"}, {"measurement": "concentration in supernatant fluid", "setting": "[3]; 0.000 hr", "result": 55.280, "unit": "mg/mL"}, {"measurement": "concentration in supernatant fluid", "setting": "[3]; 2.5000 hr", "result": 54.820, "unit": "mg/mL"}, {"measurement": "percent remaining", "setting": "[3]; 2.5000 hr", "result": 99.168, "unit": "%"}, {"measurement": "concentration in supernatant fluid", "setting": "[3]; 4.0000 hr", "result": 53.960, "unit": "mg/mL"}, {"measurement": "percent remaining", "setting": "[3]; 4.0000 hr", "result": 97.612, "unit": "%"}, {"measurement": "concentration in supernatant fluid", "setting": "[3]; 6.0000 hr", "result": 53.460, "unit": "mg/mL"}, {"measurement": "percent remaining", "setting": "[3]; 6.0000 hr", "result": 96.708, "unit": "%"}, {"measurement": "concentration in supernatant fluid", "setting": "[3]; 8.0000 hr", "result": 54.040, "unit": "mg/mL"}, {"measurement": "percent remaining", "setting": "[3]; 8.0000 hr", "result": 97.757, "unit": "%"}, {"measurement": "concentration in supernatant fluid", "setting": "[3]; 10.000 hr", "result": 54.870, "unit": "mg/mL"}, {"measurement": "percent remaining", "setting": "[3]; 10.000 hr", "result": 99.258, "unit": "%"}, {"measurement": "concentration in supernatant fluid", "setting": "[3]; 12.000 hr", "result": 54.060, "unit": "mg/mL"}, {"measurement": "percent remaining", "setting": "[3]; 12.000 hr", "result": 97.793, "unit": "%"}, {"measurement": "concentration in supernatant fluid", "setting": "[3]; 20.000 hr", "result": 52.360, "unit": "mg/mL"}, {"measurement": "percent remaining", "setting": "[3]; 20.000 hr", "result": 94.718, "unit": "%"}, {"measurement": "concentration in supernatant fluid", "setting": "[3]; 24.000 hr", "result": 51.310, "unit": "mg/mL"}, {"measurement": "percent remaining", "setting": "[3]; 24.000 hr", "result": 92.818, "unit": "%"}, {"measurement": "concentration in supernatant fluid", "setting": "[3]; 29.000 hr", "result": 53.830, "unit": "mg/mL"}, {"measurement": "percent remaining", "setting": "[3]; 29.000 hr", "result": 97.377, "unit": "%"}, {"measurement": "concentration in supernatant fluid", "setting": "[3]; 34.000 hr", "result": 52.880, "unit": "mg/mL"}, {"measurement": "percent remaining", "setting": "[3]; 34.000 hr", "result": 95.658, "unit": "%"}, {"measurement": "concentration in supernatant fluid", "setting": "[3]; 44.000 hr", "result": 53.640, "unit": "mg/mL"}, {"measurement": "percent remaining", "setting": "[3]; 44.000 hr", "result": 97.033, "unit": "%"}, {"measurement": "concentration in supernatant fluid", "setting": "[3]; 48.000 hr", "result": 52.730, "unit": "mg/mL"}, {"measurement": "percent remaining", "setting": "[3]; 48.000 hr", "result": 95.387, "unit": "%"}, {"measurement": "concentration in supernatant fluid", "setting": "[3]; 68.000 hr", "result": 53.560, "unit": "mg/mL"}, {"measurement": "percent remaining", "setting": "[3]; 68.000 hr", "result": 96.889, "unit": "%"}, {"measurement": "concentration in supernatant fluid", "setting": "[3]; 92.000 hr", "result": 53.560, "unit": "mg/mL"}, {"measurement": "percent remaining", "setting": "[3]; 92.000 hr", "result": 96.889, "unit": "%"}, {"measurement": "stability of the isomer", "setting": "[4]", "result": "stable"}, {"measurement": "concentration in supernatant fluid", "setting": "[4]; 0.0000 hr", "result": 55.000, "unit": "mg/mL"}, {"measurement": "concentration in supernatant fluid", "setting": "[4]; 2.5000 hr", "result": 54.310, "unit": "mg/mL"}, {"measurement": "percent remaining", "setting": "[4]; 2.5000 hr", "result": 98.745, "unit": "%"}, {"measurement": "concentration in supernatant fluid", "setting": "[4]; 4.0000 hr", "result": 54.440, "unit": "mg/mL"}, {"measurement": "percent remaining", "setting": "[4]; 4.0000 hr", "result": 98.982, "unit": "%"}, {"measurement": "concentration in supernatant fluid", "setting": "[4]; 6.0000 hr", "result": 54.470, "unit": "mg/mL"}, {"measurement": "percent remaining", "setting": "[4]; 6.0000 hr", "result": 99.036, "unit": "%"}, {"measurement": "concentration in supernatant fluid", "setting": "[4]; 8.0000 hr", "result": 54.760, "unit": "mg/mL"}, {"measurement": "percent remaining", "setting": "[4]; 8.0000 hr", "result": 99.564, "unit": "%"}, {"measurement": "concentration in supernatant fluid", "setting": "[4]; 10.000 hr", "result": 55.840, "unit": "mg/mL"}, {"measurement": "percent remaining", "setting": "[4]; 10.000 hr", "result": 101.53, "unit": "%"}, {"measurement": "concentration in supernatant fluid", "setting": "[4]; 12.000 hr", "result": 56.760, "unit": "mg/mL"}, {"measurement": "percent remaining", "setting": "[4]; 12.000 hr", "result": 103.20, "unit": "%"}, {"measurement": "concentration in supernatant fluid", "setting": "[4]; 20.000 hr", "result": 55.460, "unit": "mg/mL"}, {"measurement": "percent remaining", "setting": "[4]; 20.000 hr", "result": 100.84, "unit": "%"}, {"measurement": "concentration in supernatant fluid", "setting": "[4]; 24.000 hr", "result": 55.390, "unit": "mg/mL"}, {"measurement": "percent remaining", "setting": "[4]; 24.000 hr", "result": 100.71, "unit": "%"}, {"measurement": "concentration in supernatant fluid", "setting": "[4]; 29.000 hr", "result": 53.990, "unit": "mg/mL"}, {"measurement": "percent remaining", "setting": "[4]; 29.000 hr", "result": 98.164, "unit": "%"}, {"measurement": "concentration in supernatant fluid", "setting": "[4]; 34.000 hr", "result": 53.440, "unit": "mg/mL"}, {"measurement": "percent remaining", "setting": "[4]; 34.000 hr", "result": 97.164, "unit": "%"}, {"measurement": "concentration in supernatant fluid", "setting": "[4]; 44.000 hr", "result": 52.960, "unit": "mg/mL"}, {"measurement": "percent remaining", "setting": "[4]; 44.000 hr", "result": 96.291, "unit": "%"}, {"measurement": "concentration in supernatant fluid", "setting": "[4]; 48.000 hr", "result": 52.940, "unit": "mg/mL"}, {"measurement": "percent remaining", "setting": "[4]; 48.000 hr", "result": 96.255, "unit": "%"}, {"measurement": "concentration in supernatant fluid", "setting": "[4]; 68.000 hr", "result": 49.940, "unit": "mg/mL"}, {"measurement": "percent remaining", "setting": "[4]; 68.000 hr", "result": 90.800, "unit": "%"}, {"measurement": "concentration in supernatant fluid", "setting": "[4]; 92.000 hr", "result": 50.670, "unit": "mg/mL"}, {"measurement": "percent remaining", "setting": "[4]; 92.000 hr", "result": 92.127, "unit": "%"}]}
